In patent US8383817B2, “Benztropine compounds and uses thereof” (The United States of America, as represented by the …, priority 2005, dated 2013):

Assays:
[1] = Model For Reducing Effect of Nicotine (nicotine discrimination); type: in vivo, rat; conditions: rats; dose 1.0 mg/kg; nicotine only control 50%
Description: Model For Reducing Effect of Nicotine. Food-deprived rats were trained to press one lever for a food pellet after nicotine administration and a second lever after vehicle administration. Pellets of food were delivered intermittently, so that every twentieth response produced food. Using this procedure, the only cue for the rat regarding which lever occasionally pays off with a food pellet, is the subjective effect of the nicotine. When the rats were accurately and reliably identifying the nicotine injections (approximately all of its responses on the lever that occasionally pays off after nicotine or saline), testing began. The rats were pretreated with a compound of Formula III before nicotine injection, and the experiment progressed as described above, except responses on either lever intermittently produced food. A 50% effective nicotine dose was reduced to low levels of effectiveness upon administration of a compound of Formula III.

[2] = Model For Determining Increase in Attention; type: in vivo, rat; conditions: rats, five-hole chamber, 40 min session, FIG. 4B
Experimental: Model For Determining Increase in Attention. Rats were trained during daily sessions in a chamber which contained five holes along one wall. When a light came on behind one of the holes, the rat had 5 sec to respond by putting its nose in the hole. If it did this, a food pellet was dispensed. Lights came on for one second randomly in time. Each tenth “correct” response produced a food pellet. The rat had to continuously monitor (attend to) the lights to perform well. The results were measured and illustrated in FIG. 4A. […] The short diagonal marks on the line indicate the occasions on which food pellets were delivered.
Rats were administered a dose of a compound of Formula III, in which R^1 is methyl and R^2 and R^3 are each fluoro. The same task was applied and the number of correct and incorrect responses was measured. The results are depicted in FIG. 4B.

[3] = Cocaine Discrimination Assay; type: in vivo, rat; conditions: rats trained to discriminate IP 10 mg/kg cocaine from saline; 80% or higher = full substitution; FIG. 1
[4] = molecular target: T1, DA uptake (Rattus norvegicus, UniProt P23977); assay: Dopamine Uptake Assay, [3H]dopamine in synaptosomal tissue preparation; type: biochemical
T1 construct: The synaptosomal tissue preparation was incubated in buffer in glass test tubes at 37° C; from tissue

[5] = molecular target: T2, DAT (Rattus norvegicus, UniProt P23977); assay: biochemical; type: binding
T2 construct: their brains removed to an ice-cooled dish for dissection of the caudate putamen; from tissue; host or cells: rat caudate putamen homogenate

[6] = molecular target: T3, muscarinic M1 receptor (Rattus norvegicus, UniProt P08482); assay: [3H]Pirenzepine Binding Assay, rat brain membranes
T3 construct: Membranes from frozen rat brains excluding cerebellum were thawed; from tissue; host or cells: rat brain (excluding cerebellum) membranes
T3 sequence (P08482 1-460): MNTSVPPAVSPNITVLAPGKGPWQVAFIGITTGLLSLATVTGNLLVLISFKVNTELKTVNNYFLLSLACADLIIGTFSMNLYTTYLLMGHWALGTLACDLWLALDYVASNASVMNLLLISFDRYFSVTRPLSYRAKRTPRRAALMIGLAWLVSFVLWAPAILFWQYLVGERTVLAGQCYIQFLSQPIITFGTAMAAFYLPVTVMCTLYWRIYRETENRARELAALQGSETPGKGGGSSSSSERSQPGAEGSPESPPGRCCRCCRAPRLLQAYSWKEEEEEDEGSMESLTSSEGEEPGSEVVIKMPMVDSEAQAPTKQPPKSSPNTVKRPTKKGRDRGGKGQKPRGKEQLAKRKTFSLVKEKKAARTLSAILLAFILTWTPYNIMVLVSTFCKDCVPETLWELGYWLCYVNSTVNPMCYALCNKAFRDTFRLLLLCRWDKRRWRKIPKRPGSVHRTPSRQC

[7] = molecular target: T4, NET (Rattus norvegicus, UniProt Q9WTR4); type: binding; conditions: read-out: NET Ki; Table 2
T4 construct: rows headed: NET Ki; NET Ki

[8] = molecular target: T5, SERT (Rattus norvegicus, UniProt P31652); assay: [3H]Citalopram Binding Assay, rat midbrain membranes
T5 construct: Membranes from frozen rat midbrain were homogenized; from tissue; host or cells: rat midbrain membranes
T5 sequence (P31652 whole entry): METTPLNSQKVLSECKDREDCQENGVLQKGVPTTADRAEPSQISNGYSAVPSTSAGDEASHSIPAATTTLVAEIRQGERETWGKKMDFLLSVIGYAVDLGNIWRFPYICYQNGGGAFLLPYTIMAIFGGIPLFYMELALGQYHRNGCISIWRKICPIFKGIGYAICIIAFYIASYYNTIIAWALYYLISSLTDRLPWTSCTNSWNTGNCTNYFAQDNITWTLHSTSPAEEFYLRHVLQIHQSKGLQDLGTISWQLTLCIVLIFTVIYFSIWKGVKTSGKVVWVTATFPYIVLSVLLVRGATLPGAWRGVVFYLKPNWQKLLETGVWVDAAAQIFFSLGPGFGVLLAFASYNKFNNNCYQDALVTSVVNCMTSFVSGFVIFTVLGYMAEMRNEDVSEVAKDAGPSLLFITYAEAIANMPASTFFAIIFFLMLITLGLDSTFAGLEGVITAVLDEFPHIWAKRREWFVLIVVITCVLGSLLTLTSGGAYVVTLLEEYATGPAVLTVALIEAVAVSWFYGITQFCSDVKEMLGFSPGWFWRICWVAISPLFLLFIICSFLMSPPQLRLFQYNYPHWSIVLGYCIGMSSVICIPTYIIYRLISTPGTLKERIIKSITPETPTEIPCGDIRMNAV

T1 sequence (P23977 whole entry): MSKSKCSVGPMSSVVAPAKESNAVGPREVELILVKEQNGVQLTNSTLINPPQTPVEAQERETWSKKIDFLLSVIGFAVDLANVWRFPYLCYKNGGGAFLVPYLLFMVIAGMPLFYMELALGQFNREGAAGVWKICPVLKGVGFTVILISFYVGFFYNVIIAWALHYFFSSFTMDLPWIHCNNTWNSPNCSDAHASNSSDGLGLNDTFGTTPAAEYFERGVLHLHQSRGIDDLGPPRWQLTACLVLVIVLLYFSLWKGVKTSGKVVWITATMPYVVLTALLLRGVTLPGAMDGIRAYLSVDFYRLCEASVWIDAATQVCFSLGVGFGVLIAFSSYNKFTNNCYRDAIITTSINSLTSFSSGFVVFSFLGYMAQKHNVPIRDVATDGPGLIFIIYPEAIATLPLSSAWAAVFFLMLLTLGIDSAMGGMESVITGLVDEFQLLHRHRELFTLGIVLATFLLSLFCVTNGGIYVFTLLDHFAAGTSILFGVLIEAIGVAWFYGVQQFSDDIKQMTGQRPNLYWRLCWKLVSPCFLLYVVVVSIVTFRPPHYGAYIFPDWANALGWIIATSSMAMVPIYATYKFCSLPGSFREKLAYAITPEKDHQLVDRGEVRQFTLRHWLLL
T2 sequence (P23977 whole entry): as above

| Structure (SMILES) | Effect (of a 50% effective nicotine dose after pretreatment) [1] | Number of correct responses (attention to brief light stimuli) [2] | Substitution for cocaine (cocaine-appropriate responding) [3] | IC50 [4] | Ki [5] | Ki [6] | Ki [7] | Ki [8] |
| --- | --- | --- | --- | --- | --- | --- | --- | --- |
| CN1[C@@H]2CC[C@@H]1CC(OC(c1ccc(F)cc1)c1ccc(F)cc1)C2 (stereo partly shown) [AHN 1-055] | 7.65% | far greater than before treatment | did not fully substitute for cocaine |  |  |  |  |  |
| COC(=O)[C@@H]1[C@@H](OC(c2ccc(Cl)cc2)c2ccc(Cl)cc2)C[C@H]2CC[C@@H]1N2C [Compound S-14] |  |  |  | 2.46 ± 0.2 nM | 12.6 ± 0.4 nM | 382 ± 37 nM | 2150 ± 325 nM | 528 ± 39 nM |
| CCOC(=O)[C@@H]1[C@@H](OC(c2ccc(Cl)cc2)c2ccc(Cl)cc2)C[C@H]2CC[C@@H]1N2C [Compound S-15, S-(+)-2β-Carboethoxy-3α-[bis(4-chlorophenyl)methoxy]tropane] |  |  |  | 1.52 ± 0.2 nM | 14.6 ± 0.39 nM | 3060 ± 150 nM | 3350 ± 154 nM | 1560 ± 91 nM |
